Data reported in PubChem BioAssay (NCI).
Several values for one entry are separate records, joined by “and”; a condition that tells them apart may be missing. Equal entries are not always repeated.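 Values below derive from 48-hour exposures of cells grown in 96-well plates, with endpoints linearly interpolated between the two concentrations bracketing the appropriate inhibition level. GI50 is the concentration that inhibits growth by half. Definition used: TGI = concentration required for complete inhibition of growth.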

Legend:
Assay in all cases: NCI tumour cell line growth inhibition, 48 h
COLO 205 colon = test system: COLO 205 colon
OVCAR-5 ovarian = test system: OVCAR-5 ovarian
HOP-62 NSCLC = test system: HOP-62 NSCLC
HOP-92 NSCLC = test system: HOP-92 NSCLC
EKVX NSCLC = test system: EKVX NSCLC
NCI/ADR-RES ovarian = test system: NCI/ADR-RES ovarian
M14 melanoma = test system: M14 melanoma
UACC-62 melanoma = test system: UACC-62 melanoma
SNB-19 CNS = test system: SNB-19 CNS
NCI-H23 lung = test system: NCI-H23 lung

Compound	GI50 (COLO 205 colon)	TGI (COLO 205 colon)	GI50 (OVCAR-5 ovarian)	TGI (OVCAR-5 ovarian)	GI50 (HOP-62 NSCLC)	TGI (HOP-62 NSCLC)	GI50 (HOP-92 NSCLC)	TGI (HOP-92 NSCLC)	GI50 (EKVX NSCLC)	TGI (EKVX NSCLC)	GI50 (NCI/ADR-RES ovarian)	TGI (NCI/ADR-RES ovarian)	GI50 (M14 melanoma)	TGI (M14 melanoma)	GI50 (UACC-62 melanoma)	TGI (UACC-62 melanoma)	GI50 (SNB-19 CNS)	TGI (SNB-19 CNS)	GI50 (NCI-H23 lung)	TGI (NCI-H23 lung)
CC1CCC2C(C)C3C(CC4C5CC=C6CC(OC7OC(CO)C(O)C(OC8OC(CO)C(O)C(O)C8O)C7OC7OC(C)C(O)C(O)C7O)CCC6(C)C5CCC43C)N2C1 (stereo not given)	> 2.5 µg/mL	33 µM and > 2.5 µg/mL	> 2.5 µg/mL	28 µM and > 2.5 µg/mL	> 2.5 µg/mL	32.2 µM and > 2.5 µg/mL	> 2.5 µg/mL	33.6 µM and > 2.5 µg/mL	> 2.5 µg/mL	21.9 µM and > 2.5 µg/mL	> 2.5 µg/mL	34.8 µM and > 2.5 µg/mL	> 2.5 µg/mL	9.84 µM and > 2.5 µg/mL	> 2.5 µg/mL	27.7 µM and > 2.5 µg/mL	> 2.5 µg/mL	23.8 µM and > 2.5 µg/mL	> 2.5 µg/mL	29.8 µM and > 2.5 µg/mL
CCOC(=O)CNC(=O)CCCn1c(=O)c2c3ccccc3n(C)c2n2nnc(-c3ccccc3)c12	> 50 µM	> 50 µM	27.7 µM	> 50 µM	5.88 µM	17.7 µM	3.6 µM	14.8 µM	20.5 µM	> 50 µM	> 50 µM	> 50 µM	18.7 µM	> 50 µM	7.2 µM	21.8 µM	5.83 µM	22.7 µM	11.8 µM	> 50 µM
CCOC(=O)c1cc2cc(NC(=O)c3cc4cc([N+](=O)[O-])ccc4n3C)ccc2n1C	76.5 µM	> 100 µM	21.7 µM	61.9 µM	19.7 µM	35.3 µM	34.9 µM	85 µM	20 µM	> 100 µM	16.8 µM	45.3 µM	34.7 µM	> 100 µM	12.3 µM	27.1 µM	22.7 µM	> 100 µM	12.3 µM	37 µM
CS(=O)c1ccc(-c2nc(-c3ccc(F)cc3)c(-c3ccncc3)[nH]2)cc1 (stereo not given)	14.7 µM	50.2 µM	55 µM	> 100 µM	> 100 µM	> 100 µM	28.8 µM	> 100 µM	49 µM	> 100 µM	> 100 µM	> 100 µM	11.3 µM	43.3 µM	9.09 µM	> 66 µM	> 77.3 µM	> 100 µM	59.2 µM	> 100 µM
Cc1c2ncccc2nc2[nH]c3ccc(OCCN(C)C)cc3c12	1.5 µM	7.94 µM	2.81 µM	19.2 µM	1.73 µM	13.7 µM	1.99 µM	9.59 µM	2.9 µM	21.2 µM	1.1 µM	17.4 µM	3.01 µM	15.6 µM	14.3 µM	39.3 µM	2.8 µM	26.7 µM	2.54 µM	21 µM
O=C1C=CN(C2OC(CO)C(O)C2O)C(=O)C1 (stereo not given)	60.2 µM	625 µM and > 2500 µM		> 2500 µM	18.7 µM	625 µM and 1340 µM	13.6 µM and 66.2 µM			> 2500 µM		625 µM and > 2500 µM		> 2500 µM	33.3 µM	625 µM and > 1840 µM	> 625 µM and 819 µM	> 2500 µM	> 625 µM and 356 µM	> 2500 µM
NC(N)=N/N=C/c1cccc(Cl)c1Cl	1.69 µM	3.13 µM	12.4 µM	26.3 µM	11.7 µM	24.1 µM	1.19 µM	5.88 µM	9.02 µM	24.2 µM	8.38 µM	24 µM	1.98 µM	4.04 µM	1.85 µM	4.96 µM	3.32 µM	11.8 µM	11.2 µM	26.4 µM
COc1cc(-c2nc(SCC(=O)Nc3ccc(C(C)=O)cc3)[nH]c(=O)c2C#N)cc(OC)c1OC	> 100 µM	> 100 µM	85.1 µM	> 100 µM	79.3 µM	> 100 µM	22.6 µM	> 100 µM	> 100 µM	> 100 µM	> 100 µM	> 100 µM	37.4 µM	> 100 µM	28 µM	> 100 µM	64 µM	> 100 µM	> 100 µM	> 100 µM
BrC(Br)(Br)c1cnc2ccccc2n1	0.735 µM	2.13 µM	2.77 µM	7.45 µM	2.27 µM	7.9 µM	1.5 µM	3.14 µM	2.99 µM	13.2 µM	2.3 µM	7.36 µM	2.05 µM	6.42 µM	2.02 µM	6.6 µM	3.33 µM	16.1 µM	3.6 µM	17.1 µM
C=CC[Se]C(=O)Cc1c(C)n(C(=O)c2ccc(Cl)cc2)c2ccc(OC)cc12	2.14 µM	4.38 µM	1.72 µM	3.21 µM	0.435 µM	2.93 µM	1.85 µM	4.09 µM	1.73 µM	3.55 µM	1.94 µM	3.89 µM	1.64 µM	3.16 µM	1.74 µM	3.18 µM	0.657 µM	1.99 µM	1.91 µM	3.87 µM
